From patent US9790218B2, “Small molecule activators of calcium-activated chloride channels and methods of use” (The Regents of the University of California, priority 2011, dated 2017)
Several values for one entry are separate records, joined by “and”; a condition that tells them apart may be missing. Equal values may be shown once.

How the values were obtained:
[1] = molecular target: T1, TMEM16A (Homo sapiens, UniProt Q5XXA6, DEL476-501); assay: Apical membrane current in TMEM16A-expressing FRT cells; format: cell-based
T1 construct: expressed in transfected cells
T1 sequence (Q5XXA6 with tags, fused parts or gaps isoform Q5XXA6-5 DEL539-564): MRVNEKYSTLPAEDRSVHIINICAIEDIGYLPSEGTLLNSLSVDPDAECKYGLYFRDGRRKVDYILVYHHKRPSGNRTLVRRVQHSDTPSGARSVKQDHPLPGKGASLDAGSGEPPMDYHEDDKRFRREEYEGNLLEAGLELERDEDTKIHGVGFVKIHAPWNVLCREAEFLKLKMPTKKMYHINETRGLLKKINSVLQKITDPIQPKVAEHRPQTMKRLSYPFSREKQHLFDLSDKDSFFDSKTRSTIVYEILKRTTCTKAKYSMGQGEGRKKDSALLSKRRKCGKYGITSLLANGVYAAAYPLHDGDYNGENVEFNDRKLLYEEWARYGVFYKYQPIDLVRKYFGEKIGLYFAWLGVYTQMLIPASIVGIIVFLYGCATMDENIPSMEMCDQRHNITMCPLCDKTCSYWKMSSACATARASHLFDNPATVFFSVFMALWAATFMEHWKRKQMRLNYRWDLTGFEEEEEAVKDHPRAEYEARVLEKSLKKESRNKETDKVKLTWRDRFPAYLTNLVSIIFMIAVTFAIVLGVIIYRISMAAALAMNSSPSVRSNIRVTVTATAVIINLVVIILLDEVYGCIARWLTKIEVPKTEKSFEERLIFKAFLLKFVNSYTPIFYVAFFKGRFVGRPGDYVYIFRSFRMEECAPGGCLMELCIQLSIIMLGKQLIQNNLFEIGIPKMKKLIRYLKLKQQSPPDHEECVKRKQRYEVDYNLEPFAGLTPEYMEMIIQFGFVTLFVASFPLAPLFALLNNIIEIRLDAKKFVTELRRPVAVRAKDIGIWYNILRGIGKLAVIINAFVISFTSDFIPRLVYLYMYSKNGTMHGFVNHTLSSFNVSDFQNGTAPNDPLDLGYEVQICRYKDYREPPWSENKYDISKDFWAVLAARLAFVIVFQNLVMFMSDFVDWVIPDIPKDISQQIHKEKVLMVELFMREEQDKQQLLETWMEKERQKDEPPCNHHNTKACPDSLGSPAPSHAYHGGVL
Experimental: FRT cells were stably transfected with human TMEM16A (TMEM16A(abc), cDNA provided by Dr. Luis Galietta, Gaslini Institute, Genoa, Italy) and the halide sensor YFP-H148Q/1152L/F46L. Cells were plated in 96-well black-walled microplates (Corning Inc., Corning, N.Y.) at a density of 20,000 cells per well in Coon's modified F12 medium supplemented with 5% fetal calf serum, 2 mM L-glutamine, 100 U/mL penicillin and 100 μg/mL streptomycin. The human submandibular cell line A253 (ATCC HTB 41) was cultured in complete McCoy's 5A medium supplemented with 10% fetal bovine serum, 100 U/mL penicillin and 100 μg/mL streptomycin.
Snapwell inserts containing TMEM16A-expressing FRT, HBE, CF HBE or HTG cells were mounted in Ussing chambers (Physiologic Instruments, San Diego, Calif.). Amiloride, CFTRinh-172, UTP, ATP, T16Ainh-A01 and TMEM16A activators were added to the apical solution and an equal volume of vehicle was added at the same time to the basolateral solution. Symmetrical HCO3^−-buffered solutions were used for HBE, CF HBE and HTG cells. For FRT cells, the hemichambers were filled with a half-Cl^− solution (apical) and the HCO3^−-buffered solution (basolateral), and the basolateral membrane was permeabilized with 250 μg/mL amphotericin B, as described (Namkung et al. (2010), supra). Cells were bathed for a 10 min stabilization period and aerated with 95% O2/5% CO2 at 37° C. or room temperature. Apical membrane current (for FRT cells) and short-circuit current were measured using an EVC4000 Multi-Channel V/I Clamp (World Precision Instruments, Sarasota, Fla.) and recorded using PowerLab/8sp (AD Instruments, Castle Hill, Australia).
The current increase was sustained for >10 min (FIG. 2B, inset). […] Data are also shown for a second Fact compound (Fact9, see Table 1) in FIG. 9.

[2] = system: human bronchi submucosal glands; assay: Airway submucosal gland fluid secretion in human bronchi; conditions: 30 μM T16Ainh-A01
Experimental: FIG. 6A-C. Airway submucosal gland fluid secretion in human bronchi. FIG. 6A. TMEM16A immunohistochemistry in CF (left) and non-CF (right) human bronchi showing apical membrane expression in serous gland epithelial cells (arrows). Scale bar: 20 μm. FIG. 6B. Mucous (fluid) secretion in human bronchi. (top) Images of mucus bubbles formed under oil in response to basolateral application of 300 nM carbachol (CCh) and 20 μM Eact. TMEM16A was inhibited by 30 μM T16Ainh-A01. Individual fluid bubbles marked with arrowheads. Scale bar: 0.5 mm. (bottom) CCh and Eact-induced secretion rates. Where indicated, tissues were pre-treated with T16Ainh-A01 (30 μM). Each point is the average of measurements made from 20 glands (mean±S.E. * P<0.05). FIG. 6C. Summary of human gland fluid secretion rates measured at 20 min after addition of 20 μM Eact, and 30 min after application of 300 nM carbachol (CCh) and 10 μM forskolin (20-66 glands from 3 tracheas and 4 bronchus). In CF-bronchi, 6 glands from one donor were stimulated by Eact. […]
Similar staining was found in non-CF and CF human bronchi. Fluid secretion was measured in individual submucosal glands from the increasing size of mucus (fluid) bubbles in which airway fragments were mounted in a 37° C. perfusion chamber and the mucosal solution was covered with oil.

SMILES	TMEM16A current following 1 μM Eact (synergy) ([1]; 1-3 μM Fact after 1 μM Eact)	TMEM16A activation alone ([1]; 1-3 μM Fact alone)	EC50 ([1]; EC50 from concentration-activation data, apical membrane current)	maximal TMEM16A activation compared to ATP effect ([1]; apical membrane current)	Cl^− current (apical membrane current) ([1]; basolateral membrane permeabilized, Cl^− gradient, ATP 100 μM)	effect of pre-treatment on gland fluid secretion [2]	inhibition of Eact- and Fact-induced Cl^− current ([1]; T16Ainh-A01 10 μM)
O=C(Nc1ccc(Br)cc1)c1cccc(-n2cnnn2)c1 [Fact, N-(4-bromophenyl)-3-(1H-tetrazol-1-yl)benzamide]	greatly increased TMEM16A current	little TMEM16A activation	3 to 6 µM and ~6 µM	maximal TMEM16A activation	large, concentration-dependent increases in Cl^− current	–	–
CCc1c(C)nc(SCC(=O)Nc2nc(-c3ccc(OC)cc3)cs2)[nH]c1=O [T16Ainh-A01, reference compound]	–	–	–	–	–	abolished basal and agonist-stimulated gland fluid secretion	inhibited
